Consider 47 compounds from patent publication US10273242B2, “Compound inhibiting activities of BTK and/or JAK3 kinases” (BEIJING HANMI PHARMACEUTICAL CO., LTD., priority 2013, dated 2019).

Each structure is given as a SMILES string.

For one test, the target named is T1, BTK kinase (Homo sapiens, UniProt Q06187).
T1 construct: purchased Invitrogen PV3363
The test is described as follows: BTK kinase activity inhibition assay (ADP-Glo). It is filed as biochemical. The settings on record: ATP 50 μM. The protocol:
The BTK kinase (purchased from Invitrogen, No.: PV3363) was diluted with reaction buffer (40 mM Tris-HCl, pH 7.5; 20 mM MgCl2, 0.1 mg/ml BSA; 1 mM DTT; 2 mM MnCl2) to 2 times of the final concentration (which is 1.1 ng/μL) and added with 5 μL/well to a 96-well plate. The compounds of the present invention were serial diluted with deionized water to four times (i.e., 40 μM, 4 μM, 0.4 μM, 80 nM, 16 nM, 3.2 nM, respectively) of the final concentrations (10 μM, 1 μM, 0.1 μM, 20 nM, 4 nM, 0.8 nM, respectively), and added at 2.5 μL/well to the test wells of the 96-well plate. After incubation at 25° C. for 10 minutes, ATP (50 μM) (purchased from Promega, No.: V9102) and 0.2 μg/μL of Poly E4Y1 (purchased from Sigma, No.: P0275-25MG) were added with 2.5 μL/well and incubated at 25° C. for 120 minutes. After the reaction was completed, 10 μL of the ADP-Glo reagent (ADP-Glo™ kinase assay kit, purchased from Promega, No.: V9102) was added to each well, and reacted at 25° C. for 40 minutes. Then 20 μL of the ADP-Glo kinase detection reagent was added to each well and reacted at 25° C. for 30 minutes. The kinase activity was detected by luminescence using the ADP-Glo kinase assay kit according to the manufacture's instruction, and IC50 values of the compounds of the present invention were calculated.

In a further test the target is T2, JAK3 kinase (Homo sapiens, UniProt P52333).
T2 construct: purchased SignalChem J03-11G
The test is described as follows: JAK3 kinase activity inhibition assay (ADP-Glo). It is filed as biochemical. The settings on record: ATP 10 μM. The protocol:
The JAK3 kinase (purchased from SignalChem, No.: J03-11G) was diluted with reaction buffer (40 mM Tris-HCl, pH 7.5; 20 mM MgCl2, 0.1 mg/ml BSA; 1 mM DTT) to 2 times of the final concentration (which is 0.5 ng/μL) and added with 5 μL/well to a 96-well plate. The compounds of the present invention were serial diluted with deionized water to four times (i.e., 40 μM, 4 μM, 0.4 μM, 80 nM, 16 nM, 3.2 nM, respectively) of the final concentrations (10 μM, 1 μM, 0.1 μM, 20 nM, 4 nM, 0.8 nM, respectively), and added with 2.5 μL/well to the test wells of the 96-well plate. After incubation at 25° C. for 10 minutes, 10 μM of ATP (purchased from Promega, No.: V9102) and 0.2 μg/μL of Poly E4Y1 (purchased from Sigma, No.: P0275-25MG) were added at 2.5 μL/well and reacted at 25° C. for 60 minutes. After the reaction was completed, 10 μL of the ADP-Glo reagent (ADP-Glo™ kinase assay kit, purchased from Promega, No.: V9102) was added to each well and reacted at 25° C. for 40 minutes. Then 20 μL of the ADP-Glo kinase detection reagent was added to each well and reacted at 25° C. for 30 minutes. The kinase activity was detected by luminescence using the ADP-Glo kinase assay kit according to the manufacture's instruction, and IC50 values of the compounds of the present invention were calculated.

T2 sequence (P52333 781-1124 limits assumed): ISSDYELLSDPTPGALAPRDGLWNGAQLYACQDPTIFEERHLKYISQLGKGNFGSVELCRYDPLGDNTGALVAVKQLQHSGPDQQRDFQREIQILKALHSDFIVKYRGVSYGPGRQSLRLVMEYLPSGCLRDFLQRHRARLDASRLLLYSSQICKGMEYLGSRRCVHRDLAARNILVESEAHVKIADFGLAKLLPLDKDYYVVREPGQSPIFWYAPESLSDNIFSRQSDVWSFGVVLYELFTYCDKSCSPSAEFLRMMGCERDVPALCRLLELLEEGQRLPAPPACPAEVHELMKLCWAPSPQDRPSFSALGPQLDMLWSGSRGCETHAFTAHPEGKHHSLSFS
T1 sequence (Q06187 whole entry): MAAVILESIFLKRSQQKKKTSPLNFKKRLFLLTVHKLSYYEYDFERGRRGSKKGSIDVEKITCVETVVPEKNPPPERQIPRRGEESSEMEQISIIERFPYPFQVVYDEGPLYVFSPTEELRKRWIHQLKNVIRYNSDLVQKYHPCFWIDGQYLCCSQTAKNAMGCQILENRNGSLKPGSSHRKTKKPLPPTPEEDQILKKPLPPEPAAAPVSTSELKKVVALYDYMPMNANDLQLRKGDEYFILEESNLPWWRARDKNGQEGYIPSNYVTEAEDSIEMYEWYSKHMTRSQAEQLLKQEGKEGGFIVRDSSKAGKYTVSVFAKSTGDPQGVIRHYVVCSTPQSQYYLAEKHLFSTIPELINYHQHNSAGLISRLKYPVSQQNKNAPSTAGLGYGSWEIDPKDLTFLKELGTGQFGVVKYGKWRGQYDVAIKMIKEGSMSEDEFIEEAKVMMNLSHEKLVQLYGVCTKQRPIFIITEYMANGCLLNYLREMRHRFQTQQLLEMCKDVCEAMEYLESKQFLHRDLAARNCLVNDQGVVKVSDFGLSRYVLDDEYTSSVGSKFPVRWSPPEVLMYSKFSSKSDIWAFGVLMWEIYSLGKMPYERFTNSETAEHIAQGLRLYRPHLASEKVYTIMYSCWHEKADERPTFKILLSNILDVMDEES

`C=CC(=O)N[C@H]1CC[C@@H](Nc2nc(Nc3cnn(C)c3)nc3ccsc23)CC1` [Example 1, N-(cis-4-((2-((1-methyl-1H-pyrazol-4-yl)amino)thieno[3,2-d]pyrimidin-4-yl)amino)cyclohexyl)acrylamide] yielded an IC50 against BTK kinase of no more than 50 nM.
Same read-out and setting: as for `C=CC(=O)NC1CCC(Nc2nc(Nc3cnn(C)c3)nc3ccsc23)CC1` (centres unmarked) [Example 2], the figure is no more than 50 nM; as for `C=CC(=O)N[C@H]1CC[C@@H](Nc2nc(Nc3cn[nH]c3)nc3ccsc23)CC1` [Example 4], no more than 50 nM.
The same measure, in the same setting: as for `C=CC(=O)N[C@H]1CC[C@@H](Nc2nc(Nc3cc(C)ns3)nc3ccsc23)CC1` [Example 8], the figure is no more than 50 nM.
In the case of `C=CC(=O)N[C@H]1CC[C@@H](Nc2nc(Nc3cnn(C4CCC4)c3)nc3ccsc23)CC1` [Example 12], on BTK kinase, the IC50 was no more than 50 nM.
As for `C=CC(=O)N[C@H]1CC[C@@H](Nc2nc(Nc3cnn(C4CCCC4)c3)nc3ccsc23)CC1` [Example 13], the IC50 against BTK kinase was no more than 50 nM.
On the same count and under the same terms, as for `C=CC(=O)N[C@H]1CC[C@@H](Nc2nc(Nc3cnn(CCO)c3)nc3ccsc23)CC1` [Example 14], the figure is no more than 50 nM; as for `C=CC(=O)N[C@H]1CC[C@@H](Nc2nc(Nc3cnn(CCOC)c3)nc3ccsc23)CC1` [Example 15], no more than 50 nM.
The same measure, in the same setting: for `C=CC(=O)N[C@H]1CC[C@@H](Nc2nc(Nc3cnn(CCF)c3)nc3ccsc23)CC1` [Example 16] the value was no more than 50 nM; for `C=CC(=O)N[C@H]1CC[C@@H](Nc2nc(Nc3cnn(CCN(C)C)c3)nc3ccsc23)CC1` [Example 17], 50 to 100 nM.
The same measure, in the same setting: as for `C=CC(=O)N[C@H]1CC[C@@H](Nc2nc(Nc3cnn(CCN4CCOCC4)c3)nc3ccsc23)CC1` [Example 18], the figure is no more than 50 nM.
`C=CC(=O)N[C@H]1CC[C@@H](Nc2nc(Nc3ccc(OCCN4CCCCC4)c(F)c3)nc3ccsc23)CC1` [Example 30] yielded an IC50 at BTK kinase of 50 to 100 nM.
Still for that read-out and setting: for `C=CC(=O)N[C@H]1CC[C@@H](Nc2nc(Nc3ccc(OCCN4CCN(C)CC4)c(F)c3)nc3ccsc23)CC1` [Example 31] the value was no more than 50 nM; for `C=CC(=O)N[C@H]1CC[C@@H](Nc2nc(Nc3ccc(N4CCOCC4)cc3)nc3ccsc23)CC1` [Example 33], 50 to 100 nM; for `C=CC(=O)N[C@H]1CC[C@@H](Nc2nc(Nc3ccc(N4CCN(C)CC4)cc3)nc3ccsc23)CC1` [Example 34], no more than 50 nM.
The same measure, in the same setting: as for `C=CC(=O)N[C@H]1CC[C@@H](Nc2nc(Nc3ccc(N4CCN(C)CC4)c(F)c3)nc3ccsc23)CC1` [Example 35], the figure is no more than 50 nM; as for `C=CC(=O)N[C@H]1CC[C@@H](Nc2nc(Nc3ccc(N4CCN(C)CC4)c(C)c3)nc3ccsc23)CC1` [Example 36], 50 to 100 nM.
The same measure, in the same setting: as for `C=CC(=O)N[C@H]1CC[C@@H](Nc2nc(Nc3ccc(NC4CCN(C)CC4)cc3)nc3ccsc23)CC1` [Example 43], the figure is no more than 50 nM.
Regarding `C=CC(=O)N[C@H]1CC[C@@H](Nc2nc(Nc3ccc(NC4CCN(C)CC4)c(F)c3)nc3ccsc23)CC1` [Example 44], the IC50 against BTK kinase was no more than 50 nM.
Consider `C=CC(=O)N[C@H]1CC[C@@H](Nc2nc(Nc3ccc(NC4CCN(C)CC4)c(C)c3)nc3ccsc23)CC1` [Example 45], for which the IC50 against BTK kinase lay in the range of 50 to 100 nM.
As to `C=CC(=O)N[C@H]1CC[C@@H](Nc2nc(Nc3ccc(NC4CCN(C)CC4)c(Cl)c3)nc3ccsc23)CC1` [Example 46], the IC50 at BTK kinase is no more than 50 nM.
`C=CC(=O)N[C@H]1CC[C@@H](Nc2nc(Nc3ccc(NC4CCN(C(C)C)CC4)c(F)c3)nc3ccsc23)CC1` [Example 47] returned an IC50 against BTK kinase of no more than 50 nM.
On to `C=CC(=O)N[C@H]1CC[C@@H](Nc2nc(Nc3ccc(OC4CCN(C)CC4)c(F)c3)nc3ccsc23)CC1` [Example 49], for which the IC50 against BTK kinase was no more than 50 nM.
The compound `C=CC(=O)N[C@H]1CC[C@@H](Nc2nc(Nc3ccc(C(=O)N4CCN(C)CC4)cc3)nc3ccsc23)CC1` [Example 50] displayed an IC50 at BTK kinase of no more than 50 nM.
Still for that read-out and setting: for `C=CC(=O)N[C@H]1CC[C@@H](Nc2nc(Nc3ccc(C(=O)N4CCN(C)CC4)c(F)c3)nc3ccsc23)CC1` [Example 51] the value was no more than 50 nM; for `C=CC(=O)N[C@H]1CC[C@@H](Nc2nc(Nc3ccc(C(=O)NC4CCN(C)CC4)c(F)c3)nc3ccsc23)CC1` [Example 52], 50 to 100 nM.
Consider `C=CC(=O)N[C@H]1CC[C@@H](Nc2nc(Nc3cnn(C)c3)nc3ccoc23)CC1` [Example 57, N-(cis-4-((2-((1-methyl-1H-pyrazol-4-yl)amino)furo[3,2-d]pyrimidin-4-yl)amino)cyclohexyl)acrylamide], for which, at BTK kinase, the IC50 was no more than 50 nM.
On the same count and under the same terms, as for `C#CC(=O)N[C@H]1CC[C@@H](Nc2nc(Nc3cnn(C)c3)nc3ccsc23)CC1` [Example 60, N-(cis-4-((2-((1-methyl-1H-pyrazol-4-yl)amino)thieno[3,2-d]pyrimidin-4-yl)amino)cyclohexyl)propynamide], the figure is no more than 50 nM.
As for `C=CC(=O)N1CC(CNc2nc(Nc3cnn(C)c3)nc3ccsc23)C1` [Example 61, 1-(3-(((2-((1-methyl-1H-pyrazol-4-yl)amino)thieno[3,2-d]pyrimidin-4-yl)amino)methyl)azetidin-1-yl)prop-2-en-1-one], the IC50 on BTK kinase is no more than 50 nM; against JAK3 kinase it was no more than 10 nM.
For `C=CC(=O)N1CC(CNc2nc(Nc3cn[nH]c3)nc3ccsc23)C1` [Example 62] the same measures were no more than 50 nM and 10 to 100 nM.
The corresponding values for `C=CC(=O)N1CC(CNc2nc(Nc3cc(C)[nH]n3)nc3ccsc23)C1` [Example 65] are no more than 50 nM and 10 to 100 nM.
In the case of `C=CC(=O)N1CC(CNc2nc(Nc3cc(C)no3)nc3ccsc23)C1` [Example 69], the IC50 on BTK kinase is no more than 50 nM; against JAK3 kinase, 10 to 100 nM.
The corresponding values for `C=CC(=O)N1CC(CNc2nc(Nc3cc(C(C)C)no3)nc3ccsc23)C1` [Example 70] are 50 to 100 nM and 10 to 100 nM.
For `C=CC(=O)N1CC(CNc2nc(Nc3cc(C)ns3)nc3ccsc23)C1` [Example 71] the same measures were no more than 50 nM and no more than 10 nM.
In the case of `C=CC(=O)N1CC(CNc2nc(Nc3cccs3)nc3ccsc23)C1` [Example 72], the results for the IC50 on BTK kinase and on JAK3 kinase were no more than 50 nM and 10 to 100 nM, respectively.
Turning to `C=CC(=O)N1CC(CNc2nc(Nc3cnoc3)nc3ccsc23)C1` [Example 73], the IC50 was no more than 50 nM against BTK kinase and 10 to 100 nM at JAK3 kinase.
For `C=CC(=O)N1CC(CNc2nc(Nc3nccs3)nc3ccsc23)C1` [Example 74] the same measures were 50 to 100 nM and 100 to 1000 nM.
`C=CC(=O)N1CC[C@@H](Nc2nc(Nc3cnn(C)c3)nc3ccsc23)C1` [Example 75]: the IC50 at BTK kinase is no more than 50 nM; against JAK3 kinase, 10 to 100 nM.
The corresponding values for `C=CC(=O)N1CC[C@@H](Nc2nc(Nc3cccs3)nc3ccsc23)C1` [Example 76] are no more than 50 nM and 10 to 100 nM.
For `C=CC(=O)N1CC[C@@H](Nc2nc(Nc3cn[nH]c3)nc3ccsc23)C1` [Example 77] the same measures were no more than 50 nM and 10 to 100 nM.
The corresponding values for `C=CC(=O)N1CC[C@@H](Nc2nc(Nc3cnoc3)nc3ccsc23)C1` [Example 78] are 50 to 100 nM and 10 to 100 nM.
For the compound `C=CC(=O)N1CC[C@@H](Nc2nc(Nc3cc(C)no3)nc3ccsc23)C1` [Example 79], the IC50 at BTK kinase lay within 100 to 1000 nM; against JAK3 kinase, 10 to 100 nM.
For `C=CC(=O)N1CCC[C@@H](Nc2nc(Nc3cnn(C)c3)nc3ccsc23)C1` [Example 80] the same measures were no more than 50 nM and 10 to 100 nM.
For `C=CC(=O)N1CCC[C@@H](Nc2nc(Nc3cn[nH]c3)nc3ccsc23)C1` [Example 81], the IC50 against BTK kinase was no more than 50 nM; against JAK3 kinase, 10 to 100 nM.
For `C=CC(=O)N1CCC[C@@H](Nc2nc(Nc3cc(C)ns3)nc3ccsc23)C1` [Example 82] the same measures were no more than 50 nM and no more than 10 nM.
In the case of `C=CC(=O)N1CCC[C@@H](Nc2nc(Nc3cnoc3)nc3ccsc23)C1` [Example 83], the IC50 on BTK kinase was no more than 50 nM; at JAK3 kinase, no more than 10 nM.
Compound `C=CC(=O)N1CC(CNc2nc(Nc3cnn(C)c3)nn3cccc23)C1` [Example 136] yielded an IC50 against BTK kinase of no more than 50 nM.
